Assay results as given in patent publication US12433865B2, “Compositions comprising PGI2-receptor agonists and processes for the preparation thereof” (Arena Pharmaceuticals, Inc., priority 2018, dated 2025).

Experiments:
[1] = Open-label, fixed sequence single-dose pharmacokinetic study in healthy subjects (Example 7 A); assay type: in vivo, human
Protocol: A. An open-label, fixed sequence, non-randomized study in two cohorts of healthy male and non-pregnant, non-lactating female subjects was conducted. Two cohorts with twelve subjects in each were enrolled to ensure data in ten evaluable subjects per cohort.
Each subject in Cohort 1 received each of the following regimens, in the fasted state, in a sequential manner over four treatment periods: • Regimen A (0.03 mg immediate-release Compound 1): 1×0.03 mg Compound 1 immediate-release capsule. • Regimen B (0.06 mg modified-release Compound 1): 1×0.06 mg Compound 1 modified-release tablet as disclosed herein. • Regimen C (0.12 mg modified-release Compound 1): 2×0.06 mg Compound 1 modified-release tablets as disclosed herein. • Regimen D (0.18 mg modified-release Compound 1) 3×0.06 mg Compound 1 modified-release tablets as disclosed herein.
Subjects received each regimen in the morning of Day 1, following an overnight fast of a minimum of 8 hours. PK samples were taken from subjects at 72 hours post-dose. There was a minimum washout period of 7 days between each administration of investigational medicinal product (IMP) (i.e., selexipag film-coated tablet(s), Compound 1 immediate-release capsule(s), and/or Compound 1 modified-release tablet(s)).
For Cohort 1, subjects received Regimens […] in a sequential manner at consecutive treatment periods.
Venous blood samples were withdrawn at regular time intervals. Plasma concentration data for Compound 1 and the selexipag parent and active metabolite were analyzed using appropriate non-compartmental techniques to obtain estimates of one or more of the following parameters: • Tlag • Tmax • Cmax • C12 • C24 • AUC(0-last) • AUC(0-inf) • AUC % extrap • lambda-z • T1/2e1 • CL/F • Frel: relative bioavailability of 0.06 mg Compound 1 tablets compared to the reference 0.03 mg Compound 1 capsule Pharmacodynamic Assessments:
One or more of the above pharmacokinetic parameters were determined at one or more of the following time points: pre-dose and (referring to hours after administration): 0.5, 1, 1.5, 2, 3, 4, 5, 6, 8, 10, 12, 16, 20, 24, 36, 48, and 72 hours.

[2] = Open-label multiple-dose escalation pharmacokinetic study in fasted or fed healthy subjects (Example 7 B); assay type: in vivo, human
Protocol: B. A second open-label, non-randomized pharmacokinetic study was conducted in healthy subjects. Fasted (cohort 1; n=19) or fed state (cohort 2, n=18) subjects received a modified-release tablet formulation of Compound 1 in a dose escalation sequence over 25 days ([…], depending upon individual subject tolerability, […]).
Two cohorts were enrolled to ensure data in 12 evaluable subjects per cohort. […]

PAH patients = test: 22-week randomized, double-blind, placebo-controlled study (Example 8); assay type: in vivo, human
Protocol: A 22-week randomized, double-blind, placebo-controlled study with a dose titration period of up to 9 weeks was conducted. Sixty-one patients were randomized 2:1 Compound 1 to placebo. Right Heart Catheterization (RHC) measurements were obtained prior to study Day 1 of the dose titration period and at Week 22. The following values were obtained and recorded: pulmonary artery pressure (PAP) (systolic, diastolic, and mean), heart rate (HR), right atrial pressure (RAP), pulmonary capillary wedge pressure (PCWP) right ventricular pressure (RVP) and cardiac output (CO), pulmonary vascular resistance (PVR), arterial and mixed venous oxygen saturation […] (if applicable). Systemic vascular resistance (SVR) was estimated from blood pressure measurements. The 6-minute walk test (6MWD) was conducted according to the modified guidelines issued by the American Thoracic Society. See Am J Respir Crit Care Med 166:111-117, 2002.
Primary efficacy endpoints for the study were: a) change from baseline in PVR after 22 weeks of treatment, and b) change from baseline in 6MWD after 22 weeks of treatment.
Compound 1 was administered as a capsule in 0.01, 0.02, 0.03, 0.04, and 0.10 mg dose strengths. The formulation was supplied as a liquid-filled, size 4, hard-gelatin capsule containing Compound 1, polyoxyl 40 hydrogenated castor oil (Kolliphor® RH40) NF, butylated hydroxytoluene (BHT)NF, and colloidal silicon dioxide NF.
The starting dose of Compound 1 was 0.01 mg twice daily. The dose of Compound 1 was titrated according to patient tolerability. If the initial dose was tolerated (0.01 mg twice daily), then the dose was increased once a week in the following fashion: 0.02 mg twice daily, 0.03 mg twice daily, 0.04 mg twice daily, 0.06 mg twice daily, 0.08 mg, 0.1 mg twice daily, 0.2 mg twice daily and 0.3 mg twice daily. The dose was optionally escalated to a possible maximum total daily dose of 0.6 mg (0.3 mg twice daily), pending tolerability. […] Compound 1 daily maintenance doses were titrated as high as 0.6 mg, and the most common dose was 0.4 mg.
Subjects received concomitant oral disease-specific PAH therapy only if the dose remained stable for at least 3 months prior to the start of screening. This therapy consisted of the following: ERA and/or an agent acting on the NO pathway including the following: a PDE-5 inhibitor and a sGC stimulator. Subjects were instructed to continue the same dose and regimen of these medications for the duration of the study.

Plasma half-life = assay type: in vivo
[3] = 0.06-0.18 mg modified-release tablets vs 0.03 mg immediate-release capsule
[4] = single oral dose, fasted healthy subjects
[5] = modified-release tablet once daily

Q: Which results are given for `O=C(O)COC[C@H]1CC[C@H](COC(=O)N(c2ccccc2)c2ccc(Cl)cc2)CC1` [Compound 1, 2-(((1r,4r)-4-(((4-chlorophenyl)(phenyl)carbamoyloxy)methyl)cyclohexyl)methoxy)acetic acid]?
A: dose-adjusted total exposure (AUC(0-last)) compared to 0.03 mg immediate release capsule ([1]; 0.18 mg modified-release tablet): similar; relative bioavailability based on individual dose-adjusted Cmax vs immediate-release capsule ([1]; 0.06, 0.12 and 0.18 mg modified-release tablet): statistically significantly lower; dose-adjusted peak plasma exposure (Cmax/D), geometric mean ratios modified-release vs immediate-release [1, 3]: 28.7-41.2%; dose-adjusted total plasma exposure (AUC/D), geometric mean ratios modified-release vs immediate-release [1, 3]: 63.3-97.9%; relative bioavailability based on individual dose-adjusted AUC(0-last) vs immediate-release capsule ([1]; 0.06 and 0.12 mg modified-release tablet): statistically significantly lower; half-life ([1]; both sexes, human, plasma, oral, modified-release tablets, across all dose levels (0.06, 0.12, 0.18 mg), read-out: geometric mean half-life): 19 to 23 h; Tmax ([1]; both sexes, human, plasma, single oral administration of 0.06, 0.12 and 0.18 mg modified-release tablets, read-out: median Tmax): 4 to 10 h; plasma concentrations at 24 hours post-dose compared to immediate-release formulation ([1]; modified-release tablet formulation): higher; increase of systemic exposure (Cmax and AUC) with dose ([1]; oral modified-release tablet formulation): slightly higher than dose-proportional; Cmax, modified-release tablet vs immediate-release capsule [1, 4]: reduced; Tmax, modified-release tablet vs immediate-release capsule [1, 4]: increased; total plasma concentrations, modified-release tablet vs immediate-release capsule [1, 4]: similar; accumulation index (AUC(0-24)) ([2]; 5 days of dosing at 0.60 mg, both fed and fasted state): approximately 2.1 fold; exposure in fed vs fasted state ([2]; after single administration and at steady state): similar; differences in AUC(0-24) at steady state, female vs male subjects [2, 5]: did not indicate a significant increase; increase of Cmax at steady state in female vs male subjects [2, 5]: greater than 42%; mean plasma exposure measures in females compared to males [2, 5]: Somewhat higher; plasma exposure measures vs dose ([2]; modified-release tablet once daily, 0.06 to 0.3 mg): Dose-dependent; peak-trough fluctuation ([2]; modified-release tablet once daily, across dose levels): low; effect of food on plasma exposure ([2]; modified-release tablet once daily, fed vs fasted, across dose levels): little effect of food; Tmax in the fed state ([2]; modified-release tablet, fed vs fasted): delayed; correlation between plasma levels and improvements in PVR (PAH patients; 22-week study period, p=0.004 (FIG. 17)): significant correlation; increase of least-squares mean 6MWD (PAH patients; 22 weeks, not significantly different from placebo): 36.2 m; adverse events (PAH patients; PAH patients, 22-week study): consistent with other prostacyclin treatments for the management of PAH; mean reduction in BNP from baseline to Week 22 versus placebo (PAH patients; difference not significantly different): numerically greater; mean pre-dose and 4 hours post-dose plasma concentrations (PAH patients; during the 9-week dose titration period (FIG. 15)): continued to rise; decrease of PVR from baseline to Week 22 (PAH patients; immediate-release capsule twice daily, titrated up to 0.6 mg total daily dose, p=0.02 vs placebo): 163.9 dyn·s·cm^−5; correlation between PVR percentage change and dose (PAH patients; in vivo): no significant correlation; correlation between plasma levels and improvements in 6MWD (PAH patients; p=0.0037 (FIG. 18)): significant correlation; correlation between plasma levels and improvements in BNP (PAH patients; p=0.047 (FIG. 19)): significant correlation; mean steady-state pre-dose and 4-hours post-dose plasma concentrations (PAH patients; throughout the 13-week maintenance period (FIG. 15)): maintained; half-life (Plasma half-life): ~24 h
